Earlier results in patent US20150045434A1, “METHIONINE COMPOUND INTENDED FOR ANIMAL FEED” (ROQUETTE FRERES, priority 2011, published 2015).

Columns and labels:
[1] = at 35° C.

solubility of methionine [1]: about 70 g/l
pKa1 (pKa of the acid function of methionine) (acid function): 2.2
pKa2 (pKa of the amine function of methionine) (amine function): 9.3
Compound: CSCC[C@H](N)C(=O)O [methionine]
